Test results reported in patent publication US10758534B2 (Vertex Pharmaceuticals Incorporated, priority 2014, dated 2020).

Target: T1, F508del (Homo sapiens, UniProt P13569, DEL508-508)
T1 construct: expressed in transfected cells
Assay: Protocol 1: membrane potential optical assay (FLIPR III, voltage sensing dye), identification of potentiator compounds
Format: cell-based
Details: Table 3, compounds of Table 1
Method in brief: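 Membrane potential in forskolin-activated, temperature-rescued F508del NIH 3T3 cells is followed with a voltage-sensing dye on FLIPR III. A chloride ion gradient created at the single addition step provides the driving force, after prior compound treatment.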

T1 sequence (P13569 with tags, fused parts or gaps DEL508-508): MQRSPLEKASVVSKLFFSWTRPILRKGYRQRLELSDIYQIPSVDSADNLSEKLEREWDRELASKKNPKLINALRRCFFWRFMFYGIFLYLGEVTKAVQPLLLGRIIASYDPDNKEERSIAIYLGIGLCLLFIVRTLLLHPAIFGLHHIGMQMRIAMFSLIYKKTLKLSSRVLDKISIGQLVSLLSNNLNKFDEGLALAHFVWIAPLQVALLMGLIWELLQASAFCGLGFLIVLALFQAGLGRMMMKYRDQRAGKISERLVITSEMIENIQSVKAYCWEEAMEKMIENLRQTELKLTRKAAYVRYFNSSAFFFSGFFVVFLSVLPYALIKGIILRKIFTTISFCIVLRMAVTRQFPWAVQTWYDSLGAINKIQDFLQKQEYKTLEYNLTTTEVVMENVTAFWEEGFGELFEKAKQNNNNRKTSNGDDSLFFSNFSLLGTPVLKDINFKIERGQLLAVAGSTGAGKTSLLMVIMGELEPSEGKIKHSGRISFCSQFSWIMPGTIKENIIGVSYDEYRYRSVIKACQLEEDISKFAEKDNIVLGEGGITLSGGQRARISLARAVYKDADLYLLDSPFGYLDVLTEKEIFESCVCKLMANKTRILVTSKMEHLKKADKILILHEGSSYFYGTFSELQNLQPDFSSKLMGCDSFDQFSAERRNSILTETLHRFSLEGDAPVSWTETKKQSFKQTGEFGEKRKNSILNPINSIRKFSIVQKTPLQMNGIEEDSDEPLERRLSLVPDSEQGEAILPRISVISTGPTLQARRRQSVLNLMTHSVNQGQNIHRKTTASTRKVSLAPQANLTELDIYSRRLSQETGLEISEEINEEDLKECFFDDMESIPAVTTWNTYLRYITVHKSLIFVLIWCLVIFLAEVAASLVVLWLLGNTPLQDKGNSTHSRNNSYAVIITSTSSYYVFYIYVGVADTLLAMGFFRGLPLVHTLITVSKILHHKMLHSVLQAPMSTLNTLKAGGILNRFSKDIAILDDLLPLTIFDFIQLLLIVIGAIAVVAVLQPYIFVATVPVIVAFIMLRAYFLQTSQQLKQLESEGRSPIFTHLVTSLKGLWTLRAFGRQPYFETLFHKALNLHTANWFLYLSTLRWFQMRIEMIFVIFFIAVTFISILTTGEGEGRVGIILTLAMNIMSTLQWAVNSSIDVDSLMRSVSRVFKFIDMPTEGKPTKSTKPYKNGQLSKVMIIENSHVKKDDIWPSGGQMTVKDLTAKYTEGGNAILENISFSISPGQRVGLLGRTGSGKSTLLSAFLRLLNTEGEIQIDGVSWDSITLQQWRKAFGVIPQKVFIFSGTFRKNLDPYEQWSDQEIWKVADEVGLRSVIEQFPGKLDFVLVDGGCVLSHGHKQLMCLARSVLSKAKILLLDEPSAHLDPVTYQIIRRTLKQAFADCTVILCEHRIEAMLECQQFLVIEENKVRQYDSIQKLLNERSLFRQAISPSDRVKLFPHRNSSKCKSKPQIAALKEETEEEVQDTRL

SMILES	EC30
C[C@@H]1CN(c2nc(C3CC(C)(C)CCC3=O)ccc2C(=O)NS(=O)(=O)c2cccnc2N)C(C)(C)C1 (stereo partly drawn) [Compound 1793, N-[(2-amino-3-pyridyl)sulfonyl]-6-(5,5-dimethyl-2-oxo-cyclohexyl)-2-[(4S)-2,2,4-trimethylpyrrolidin-1-yl]pyridine-3-carboxamide]	+++ (“+++” means <3 uM)
Cc1cccc(C)c1Cn1nc(-c2ccc3c(c2)OCOC3)cc1C(=O)NS(=O)(=O)c1ccccc1 [Compound 1621, N-(benzenesulfonyl)-5-(4H-1,3-benzodioxin-7-yl)-2-[(2,6-dimethylphenyl)methyl]pyrazole-3-carboxamide]	+++ (“+++” means <3 uM)
Cc1cc(C(=O)NS(=O)(=O)c2cccc(N)n2)c(N2CC(C)CC2(C)C)nc1-c1cc(F)cc(OCC(C)C)c1 (centres unmarked) [Compound 1269, N-[(6-amino-2-pyridyl)sulfonyl]-6-(3-fluoro-5-isobutoxy-phenyl)-5-methyl-2-(2,2,4-trimethylpyrrolidin-1-yl)pyridine-3-carboxamide]	+++ (“+++” means <3 uM)
CC(C)(C)c1ccc(C(=O)NS(=O)(=O)c2cccc(N)n2)c(N2CCC(C3CC3)C2(C)C)n1 (centres unmarked) [Compound 1974]	+++ (“+++” means <3 uM)
CC(C)COc1cc(F)cc(-c2ccc(C(=O)NS(=O)(=O)c3cccc(N)n3)c(N3[C@H](C)CCC3(C)C)n2)c1 [Compound 1166, N-[(6-amino-2-pyridyl)sulfonyl]-6-(3-fluoro-5-isobutoxy-phenyl)-2-[(5R)-2,2,5-trimethylpyrrolidin-1-yl]pyridine-3-carboxamide]	+++ (“+++” means <3 uM)
C#CCOc1cccc(S(=O)(=O)NC(=O)c2cccnc2N2CC(C)CC2(C)C)n1 (centres unmarked) [Compound 1753, N-[(6-prop-2-ynoxy-2-pyridyl)sulfonyl]-2-(2,2,4-trimethylpyrrolidin-1-yl)pyridine-3-carboxamide]	++ (“++” means between 3 uM and 10 uM)
COc1ccc(/C=C/c2cc(C(=O)NS(=O)(=O)c3cccc(N)n3)c(N3C[C@@H](C)CC3(C)C)nc2C(C)(C)C)cc1 [Compound 1535, N-[(6-amino-2-pyridyl)sulfonyl]-6-tert-butyl-5-[(E)-2-(4-methoxyphenyl)vinyl]-2-[(4S)-2,2,4-trimethylpyrrolidin-1-yl]pyridine-3-carboxamide]	+++ (“+++” means <3 uM)
CC1CN(c2nc(C(C)(C)C)c(C#N)cc2C(=O)NS(=O)(=O)c2cccc(N)n2)C(C)(C)C1 (centres unmarked) [Compound 1419, N-[(6-amino-2-pyridyl)sulfonyl]-6-tert-butyl-5-cyano-2-(2,2,4-trimethylpyrrolidin-1-yl)pyridine-3-carboxamide]	+++ (“+++” means <3 uM)
COCC1CCN(c2nc(C(C)(C)C)ccc2C(=O)NS(=O)(=O)c2cccc(N)n2)CC1 [Compound 986, N-[(6-amino-2-pyridyl)sulfonyl]-6-tert-butyl-2-[4-(methoxymethyl)-1-piperidyl]pyridine-3-carboxamide]	++ (“++” means between 3 uM and 10 uM)
C[C@@H]1CN(c2nc(-c3ccc(F)cc3F)ccc2C(=O)NS(=O)(=O)N2CC[C@H](N)C2)C(C)(C)C1 [Compound 1947, N-[(3S)-3-aminopyrrolidin-1-yl]sulfonyl-6-(2,4-difluorophenyl)-2-[(4S)-2,2,4-trimethylpyrrolidin-1-yl]pyridine-3-carboxamide]	++ (“++” means between 3 uM and 10 uM)
CC(C)COc1ccc(-c2ccc(C(=O)NS(=O)(=O)c3ccn[nH]3)c(N3[C@H](C)CC[C@@H]3C)n2)cc1 [Compound 1335, 2-[(2S,5R)-2,5-dimethylpyrrolidin-1-yl]-6-(4-isobutoxyphenyl)-N-(1H-pyrazol-5-ylsulfonyl)pyridine-3-carboxamide]	+++ (“+++” means <3 uM)
CC(C)COc1cc(F)cc(-c2ccc(C(=O)NS(=O)(=O)N3CCCC(C)(N)C3)c(N3CC(C)CC3(C)C)n2)c1 (centres unmarked) [Compound 1445, N-[(3-amino-3-methyl-1-piperidyl)sulfonyl]-6-(3-fluoro-5-isobutoxy-phenyl)-2-(2,2,4-trimethylpyrrolidin-1-yl)pyridine-3-carboxamide]	+++ (“+++” means <3 uM)
CC(C)COc1cc(F)cc(-c2ccc(C(=O)NS(=O)(=O)c3cccc(N)n3)c(N3CC4CCC3CC4)n2)c1 [Compound 1657, N-[(6-amino-2-pyridyl)sulfonyl]-2-(3-azabicyclo[2.2.2]octan-3-yl)-6-(3-fluoro-5-isobutoxy-phenyl)pyridine-3-carboxamide]	+++ (“+++” means <3 uM)
CC(C)COc1cc(F)cc(-c2ccc(C(=O)NS(=O)(=O)c3ccn[nH]3)c(N3CCC4(CC3)CC4)n2)c1 [Compound 1127, 2-(6-azaspiro[2.5]octan-6-yl)-6-(3-fluoro-5-isobutoxy-phenyl)-N-(1H-pyrazol-5-ylsulfonyl)pyridine-3-carboxamide]	+++ (“+++” means <3 uM)
C[C@@H]1CN(c2nc(C(C)(C)C)ccc2C(=O)NS(=O)(=O)c2cccc(N)n2)C(C)(C)C1 [Compound 985, N-[(6-amino-2-pyridyl)sulfonyl]-6-tert-butyl-2-[(4S)-2,2,4-trimethylpyrrolidin-1-yl]pyridine-3-carboxamide]	+++ (“+++” means <3 uM)

Now from value to compound:

EC30	SMILES
+ (“+” means greater than 10 uM)	COc1nccc2c1cc(C(=O)NS(=O)(=O)c1cccc(N)c1)n2Cc1c(C)cc(C)cc1C [Compound 943, N-(3-aminophenyl)sulfonyl-4-methoxy-1-[(2,4,6-trimethylphenyl)methyl]pyrrolo[3,2-c]pyridine-2-carboxamide]
+++ (“+++” means <3 uM)	CC(C)Oc1ccc(-c2ccc(C(=O)NS(=O)(=O)c3cccc(N)n3)c(N3C[C@H](C)CC3(C)C)n2)cn1 [Compound 949, N-[(6-amino-2-pyridyl)sulfonyl]-6-(6-isopropoxy-3-pyridyl)-2-[(4R)-2,2,4-trimethylpyrrolidin-1-yl]pyridine-3-carboxamide]
++ (“++” means between 3 uM and 10 uM)	CC1CN(c2ncccc2C(=O)NS(=O)(=O)c2cccc(Oc3cncc(Cl)c3)n2)C(C)(C)C1 (centres unmarked) [Compound 1957, N—[[6-[(5-chloro-3-pyridyl)oxy]-2-pyridyl]sulfonyl]-2-(2,2,4-trimethylpyrrolidin-1-yl)pyridine-3-carboxamide]
++ (“++” means between 3 uM and 10 uM)	COc1ncc(-c2ccc(C(=O)NS(=O)(=O)c3cc[nH]n3)c(Oc3ccc(C)cc3C)n2)cc1C [Compound 892, 2-(2,4-dimethylphenoxy)-6-(6-methoxy-5-methyl-3-pyridyl)-N-(1H-pyrazol-3-ylsulfonyl)pyridine-3-carboxamide]
+++ (“+++” means <3 uM)	COc1ncc(Cl)cc1-c1ccc(C(=O)NS(=O)(=O)c2cccc(N)n2)c(Oc2c(C)cc(C)cc2C)n1 [Compound 993, N-[(6-amino-2-pyridyl)sulfonyl]-6-(5-chloro-2-methoxy-3-pyridyl)-2-(2,4,6-trimethylphenoxy)pyridine-3-carboxamide]
++ (“++” means between 3 uM and 10 uM)	CCCOc1cc(-c2ccc(C(=O)NS(=O)(=O)c3ccc[nH]c3=O)c(N3[C@H](C)CC[C@@H]3C)n2)ccc1Cl [Compound 1293, 6-(4-chloro-3-propoxy-phenyl)-2-[(2R,5S)-2,5-dimethylpyrrolidin-1-yl]-N-[(2-oxo-1H-pyridin-3-yl)sulfonyl]pyridine-3-carboxamide]
+++ (“+++” means <3 uM)	CC(C)COc1cc(F)cc(-c2ccc(C(=O)NS(=O)(=O)c3cccc(N)n3)c(N3CC[C@H](C)[C@H](C)C3)n2)c1 [Compound 1724]
+++ (“+++” means <3 uM)	CC1CN(c2ncccc2C(=O)NS(=O)(=O)c2cccc(Oc3cccc(C(C)(C)C)c3)n2)C(C)(C)C1 (centres unmarked) [Compound 1926, N—[[6-(3-tert-butylphenoxy)-2-pyridyl]sulfonyl]-2-(2,2,4-trimethylpyrrolidin-1-yl)pyridine-3-carboxamide]
+++ (“+++” means <3 uM)	CCOc1cccc2c1CN(Cc1c(C)cc(C)cc1C)C2(C)C(=O)NS(=O)(=O)c1ccc(Cl)c(N)c1 (centres unmarked) [Compound 1587, N-(3-amino-4-chloro-phenyl)sulfonyl-4-ethoxy-1-methyl-2-[(2,4,6-trimethylphenyl)methyl]isoindoline-1-carboxamide]
+++ (“+++” means <3 uM)	CC1CN(c2nc(-c3cnc(OC(C)C)cn3)ccc2C(=O)NS(=O)(=O)c2cccc(N)n2)C(C)(C)C1 (centres unmarked) [Compound 965, N-[(6-amino-2-pyridyl)sulfonyl]-6-(5-isopropoxypyrazin-2-yl)-2-(2,2,4-trimethylpyrrolidin-1-yl)pyridine-3-carboxamide]
+++ (“+++” means <3 uM)	COc1ccc(-c2ccc(C(=O)NS(=O)(=O)c3cccc(N)n3)c(Oc3c(C)cc(C)cc3C)n2)c(OC)c1 [Compound 950, N-[(6-amino-2-pyridyl)sulfonyl]-6-(2,4-dimethoxyphenyl)-2-(2,4,6-trimethylphenoxy)pyridine-3-carboxamide]
+++ (“+++” means <3 uM)	Cc1cc(C)c(Oc2nc(-c3cccc(C(C)C)c3)ccc2C(=O)NS(=O)(=O)c2cccc(N)n2)c(C)c1 [Compound 1016, N-[(6-amino-2-pyridyl)sulfonyl]-6-(3-isopropylphenyl)-2-(2,4,6-trimethylphenoxy)pyridine-3-carboxamide]
+++ (“+++” means <3 uM)	CC1CN(c2ncccc2C(=O)NS(=O)(=O)c2cccc(Oc3ccc(Cl)cc3Cl)n2)C(C)(C)C1 (centres unmarked) [Compound 1806, N—[[6-(2,4-dichlorophenoxy)-2-pyridyl]sulfnyl]-2-(2,2,4-trimethylpyrrolidin-1-yl)pyridine-3-carboxamide]
+++ (“+++” means <3 uM)	Cc1cc(C)c(Oc2nc(-c3cc(F)cc(OC(C)C)c3)ccc2C(=O)NS(=O)(=O)c2cc[nH]n2)c(C)c1 [Compound 914, 6-(3-fluoro-5-isopropoxy-phenyl)-N-(1H-pyrazol-3-ylsulfonyl)-2-(2,4,6-trimethylphenoxy)pyridine-3-carboxamide]
